Experimental data reported in PubChem BioAssay AID248 (DTP/NCI, 2004).
Inconclusive results and toxic doses are left out. Cut-off read from the data, not from the text of the source: active = T/C of 150% or more; inactive = T/C below 125%.

Test system: L1210 leukemia ip in BDF1 mice, survival T/C
Assay: NCI In Vivo Anticancer Drug Screen. Data for tumor model L1210 Leukemia (intraperitoneal) in B6D2F1 (BDF1) mice
Conditions: endpoint: mean survival time, higher = longer survival
Procedure, shortened: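 Tumor cells were implanted, animals were treated, and survival was followed. The result divides the treated measurement by the vehicle-control measurement.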

[1] = dose: 100.0 mg/kg/injection, schedule: Q01DX001 (ip), vehicle: carboxymethylcellulose (CMC)
[2] = dose: 200.0 mg/kg/injection, schedule: Q01DX001 (ip), vehicle: carboxymethylcellulose (CMC)
[3] = dose: 400.0 mg/kg/injection, schedule: Q01DX001 (ip), vehicle: carboxymethylcellulose (CMC)
[4] = dose: 100.0 mg/kg/injection, schedule: Q01DX009 (ip), vehicle: Klucel (hydroxypropylcellulose) (HPC)
[5] = dose: 200.0 mg/kg/injection, schedule: Q01DX009 (ip), vehicle: Klucel (hydroxypropylcellulose) (HPC)
[6] = dose: 400.0 mg/kg/injection, schedule: Q01DX009 (ip), vehicle: Klucel (hydroxypropylcellulose) (HPC)

Measured: T/C

Nc1[nH]c(=S)[nH]c(=O)c1N
inactive: dose: 12.0 mg/kg/injection, schedule: Q01DX009 (ip), vehicle: other 102 % of control | dose: 12.0 mg/kg/injection, schedule: Q04DX003 (ip), vehicle: saline 97 % of control | dose: 25.0 mg/kg/injection, schedule: Q01DX009 (ip), vehicle: other 102 % of control | dose: 25.0 mg/kg/injection, schedule: Q04DX003 (ip), vehicle: saline 104 % of control | dose: 50.0 mg/kg/injection, schedule: Q01DX009 (ip), vehicle: other 105 % of control | dose: 50.0 mg/kg/injection, schedule: Q04DX003 (ip), vehicle: saline 118 % of control | dose: 125.0 mg/kg/injection, schedule: Q01DX Z (ip), vehicle: methylcellulose (MC) 106 % of control | dose: 250.0 mg/kg/injection, schedule: Q01DX Z (ip), vehicle: methylcellulose (MC) 117 % of control

O=C(O)c1ccccc1NC(c1ccccc1)c1ccc2cccnc2c1O (centres undefined)
inactive: dose: 100.0 mg/kg/injection, schedule: Q01DX001 (ip), vehicle: saline 89 % of control | dose: 200.0 mg/kg/injection, schedule: Q01DX001 (ip), vehicle: saline 89 % of control

CCOC(=O)C(C)F (centres undefined)
inactive: dose: 50.0 mg/kg/injection, schedule: Q01DX001 (ip), vehicle: carboxymethylcellulose (CMC) 94 % of control | [1] 89 % of control | [2] 89 % of control

COc1cccc2c1C(=O)c1c(O)c3c(c(O)c1C2=O)CC(O)(C(C)=O)CC3O (centres undefined)
inactive: dose: 0.16 mg/kg/injection, schedule: Q01DX009 (ip), vehicle: saline with Tween-80 103 % of control | dose: 0.16 mg/kg/injection, schedule: Q03HX008 (ip), vehicle: saline with Tween-80 100 % of control | dose: 0.32 mg/kg/injection, schedule: Q01DX009 (ip), vehicle: saline with Tween-80 90 % of control | dose: 0.32 mg/kg/injection, schedule: Q03HX008 (ip), vehicle: saline with Tween-80 97 % of control | dose: 0.63 mg/kg/injection, schedule: Q01DX009 (ip), vehicle: saline with Tween-80 99 % of control | dose: 0.63 mg/kg/injection, schedule: Q03HX008 (ip), vehicle: saline with Tween-80 100 % of control | dose: 1.25 mg/kg/injection, schedule: Q01DX009 (ip), vehicle: saline with Tween-80 94 % of control | dose: 1.25 mg/kg/injection, schedule: Q03HX008 (ip), vehicle: saline with Tween-80 95 % of control | dose: 2.5 mg/kg/injection, schedule: Q01DX009 (ip), vehicle: saline with Tween-80 91 % of control | dose: 2.5 mg/kg/injection, schedule: Q03HX008 (ip), vehicle: saline with Tween-80 95 % of control | dose: 5.0 mg/kg/injection, schedule: Q01DX001 (ip), vehicle: saline 102 % of control | dose: 5.0 mg/kg/injection, schedule: Q01DX009 (ip), vehicle: saline with Tween-80 101 % of control | dose: 5.0 mg/kg/injection, schedule: Q03HX008 (ip), vehicle: saline with Tween-80 97 % of control | dose: 10.0 mg/kg/injection, schedule: Q01DX001 (ip), vehicle: saline 94 % of control | dose: 10.0 mg/kg/injection, schedule: Q01DX009 (ip), vehicle: saline with Tween-80 100 % of control | dose: 10.0 mg/kg/injection, schedule: Q03HX008 (ip), vehicle: saline with Tween-80 90 % of control | dose: 20.0 mg/kg/injection, schedule: Q01DX001 (ip), vehicle: saline with Tween-80 100 % of control | dose: 20.0 mg/kg/injection, schedule: Q01DX001 (ip), vehicle: saline 105 % of control | dose: 20.0 mg/kg/injection, schedule: Q04DX003 (ip), vehicle: saline with Tween-80 96 % of control | dose: 40.0 mg/kg/injection, schedule: Q01DX001 (ip), vehicle: saline with Tween-80 100 % of control | dose: 40.0 mg/kg/injection, schedule: Q01DX001 (ip), vehicle: saline 105 % of control | dose: 40.0 mg/kg/injection, schedule: Q04DX003 (ip), vehicle: saline with Tween-80 103 % of control | dose: 80.0 mg/kg/injection, schedule: Q01DX001 (ip), vehicle: saline with Tween-80 102 % of control | dose: 80.0 mg/kg/injection, schedule: Q04DX003 (ip), vehicle: saline with Tween-80 102 % of control | dose: 160.0 mg/kg/injection, schedule: Q01DX001 (ip), vehicle: saline with Tween-80 105 % of control | dose: 160.0 mg/kg/injection, schedule: Q04DX003 (ip), vehicle: saline with Tween-80 103 % of control

O=[N+]([O-])c1ccc(Cl)cc1/C=N\N=C1c2ccccc2-c2ccccc21
inactive: dose: 150.0 mg/kg/injection, schedule: Q01DX001 (ip), vehicle: other 94 % of control | dose: 300.0 mg/kg/injection, schedule: Q01DX001 (ip), vehicle: other 100 % of control

COC(=O)C1(CCOC(C)=O)CCCCC12OCCO2 (centres undefined)
inactive: [1] 94 % of control | [2] 100 % of control | [3] 91 % of control

CC(C)(C)C[CH2][Hg][Cl]
inactive: dose: 6.25 mg/kg/injection, schedule: Q04DX003 (ip), vehicle: Klucel (hydroxypropylcellulose) (HPC) 92 % of control | dose: 12.5 mg/kg/injection, schedule: Q04DX003 (ip), vehicle: Klucel (hydroxypropylcellulose) (HPC) 94 % of control

COc1ccc(CCNC(=S)NC(=O)c2ccc(Cl)c(Cl)c2)cc1OC
inactive: [4] 91 % of control | [5] 86 % of control | [6] 93 % of control

CC(C)CN(CC(C)C)Cn1nnc2ccccc21
inactive: dose: 75.0 mg/kg/injection, schedule: Q01DX001 (ip), vehicle: carboxymethylcellulose (CMC) 100 % of control | dose: 150.0 mg/kg/injection, schedule: Q01DX001 (ip), vehicle: carboxymethylcellulose (CMC) 94 % of control | dose: 300.0 mg/kg/injection, schedule: Q01DX001 (ip), vehicle: carboxymethylcellulose (CMC) 108 % of control

CCOC(=O)C(=O)c1c(C)[nH]c2ccccc12
inactive: [4] 96 % of control | dose: 100.0 mg/kg/injection, schedule: Q04DX003 (ip), vehicle: Klucel (hydroxypropylcellulose) (HPC) 103 % of control | [5] 92 % of control | dose: 200.0 mg/kg/injection, schedule: Q04DX003 (ip), vehicle: Klucel (hydroxypropylcellulose) (HPC) 95 % of control | [6] 94 % of control | dose: 400.0 mg/kg/injection, schedule: Q04DX003 (ip), vehicle: Klucel (hydroxypropylcellulose) (HPC) 97 % of control

NCC(=O)O
inactive: [1] 100 % of control | [2] 92 % of control | [3] 100 % of control

Nc1nc(N)c2nc3c(nc2n1)C(=O)N(c1ccc(C(=O)O)cc1)C3
inactive: dose: 12.5 mg/kg/injection, schedule: Q01DX001 (ip), vehicle: saline 102 % of control | dose: 25.0 mg/kg/injection, schedule: Q01DX001 (ip), vehicle: saline 91 % of control | dose: 50.0 mg/kg/injection, schedule: Q01DX001 (ip), vehicle: saline 102 % of control | dose: 100.0 mg/kg/injection, schedule: Q01DX009 (ip), vehicle: saline 90 % of control

CC(C)OC(=O)Nc1cccc(C(F)(F)F)c1
inactive: dose: 100.0 mg/kg/injection, schedule: Q04DX002 (ip), vehicle: Klucel (hydroxypropylcellulose) (HPC) 103 % of control | dose: 200.0 mg/kg/injection, schedule: Q04DX002 (ip), vehicle: Klucel (hydroxypropylcellulose) (HPC) 88 % of control | dose: 400.0 mg/kg/injection, schedule: Q04DX002 (ip), vehicle: Klucel (hydroxypropylcellulose) (HPC) 106 % of control

CC(=O)OC(c1ccccc1)C(C)C(OC(C)=O)(C(F)(F)F)C(F)(F)F (centres undefined)
inactive: dose: 100.0 mg/kg/injection, schedule: Q01DX009 (ip), vehicle: saline with Tween-80 102 % of control | dose: 100.0 mg/kg/injection, schedule: Q04DX003 (ip), vehicle: saline with Tween-80 102 % of control | dose: 200.0 mg/kg/injection, schedule: Q01DX009 (ip), vehicle: saline with Tween-80 98 % of control | dose: 200.0 mg/kg/injection, schedule: Q04DX003 (ip), vehicle: saline with Tween-80 94 % of control | dose: 400.0 mg/kg/injection, schedule: Q01DX009 (ip), vehicle: saline with Tween-80 100 % of control | dose: 400.0 mg/kg/injection, schedule: Q04DX003 (ip), vehicle: saline with Tween-80 93 % of control
